# Laboratory results published in patent US8106091B2, “Inhibitors of IKK-beta serine-threonine protein kinase” (Chroma Therapeutics Ltd., priority 2006, dated 2012).
# pIC50: −log10 of the molar value.
# Experiments:
# THP-1 cells = experiment: LPS-stimulation of THP-1 cells, TNF-α release; assay type: cell-based; conditions: Homo sapiens, LPS 1 μg/ml, 6 hrs, inhibitor added 2 hrs before, read-out: Inhibitor activity versus THP-1 TNFα release
# Method: LPS-Stimulation of THP-1 Cells
# THP-1 cells were plated in 100 μl at a density of 4×10^4 cells/well in V-bottomed 96 well tissue culture treated plates and incubated at 37° C. in 5% CO2 for 16 hrs. 2 hrs after the addition of the inhibitor in 100 μl of tissue culture media, the cells were stimulated with LPS (E coli strain 005:B5, Sigma) at a final concentration of 1 μg/ml and incubated at 37° C. in 5% CO2 for 6 hrs. TNF-α levels were measured from cell-free supernatants by sandwich ELISA (R&D Systems #QTA00B)
# IKBKB (IKKβ) = target: T1, IKBKB (IKKβ) (Homo sapiens, UniProt O14920); experiment: IKKβ enzyme assay (Z'-LYTE, Invitrogen); assay type: biochemical; conditions: ATP at or close to Km; read-out: Inhibitor activity versus IKKβ
# T1 construct: purchased Invitrogen (Paisley, UK)
# T1 sequence (O14920 1-756): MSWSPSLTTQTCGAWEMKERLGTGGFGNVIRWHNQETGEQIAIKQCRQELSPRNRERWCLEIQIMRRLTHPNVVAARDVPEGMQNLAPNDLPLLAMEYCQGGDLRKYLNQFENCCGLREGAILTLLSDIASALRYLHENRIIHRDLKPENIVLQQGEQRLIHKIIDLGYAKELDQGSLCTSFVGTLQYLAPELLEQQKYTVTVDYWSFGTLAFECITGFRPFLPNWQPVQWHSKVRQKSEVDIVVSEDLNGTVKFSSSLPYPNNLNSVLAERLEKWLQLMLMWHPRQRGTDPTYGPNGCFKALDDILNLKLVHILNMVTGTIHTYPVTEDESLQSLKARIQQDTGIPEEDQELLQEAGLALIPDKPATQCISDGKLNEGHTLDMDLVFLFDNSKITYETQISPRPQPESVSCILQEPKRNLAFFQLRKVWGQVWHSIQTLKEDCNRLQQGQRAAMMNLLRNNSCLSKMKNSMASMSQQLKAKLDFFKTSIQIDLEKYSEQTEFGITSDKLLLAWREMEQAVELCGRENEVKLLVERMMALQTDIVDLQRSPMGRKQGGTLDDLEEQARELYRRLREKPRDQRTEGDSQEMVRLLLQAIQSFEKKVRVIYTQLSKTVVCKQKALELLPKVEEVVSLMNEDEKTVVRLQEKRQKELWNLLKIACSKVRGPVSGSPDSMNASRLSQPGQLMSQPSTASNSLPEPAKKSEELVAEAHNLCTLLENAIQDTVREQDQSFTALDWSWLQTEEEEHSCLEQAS
# Method: The ability of compounds to inhibit IKKβ kinase activity was measured in an assay performed by Invitrogen (Paisley, UK). The Z′-LYTE™ biochemical assay employs a fluorescence-based, coupled-enzyme format and is based on the differential sensitivity of phosphorylated and non-phosphorylated peptides to proteolytic cleavage. The peptide substrate is labelled with two fluorophores—one at each end—that make up a FRET pair. In the primary reaction, the kinase transfers the gamma-phosphate of ATP to a single serine or threonine residue in a synthetic FRET-peptide. In the secondary reaction, a site-specific protease recognizes and cleaves non-phosphorylated FRET-peptides. Phosphorylation of FRET-peptides suppresses cleavage by the Development Reagent. Cleavage disrupts FRET between the donor (i.e., coumarin) and acceptor (i.e. fluorescein) fluorophores on the FRET-peptide, whereas uncleaved, phosphorylated FRET-peptides maintain FRET. A […] method, which calculates the ratio (the Emission Ratio) of donor emission to acceptor emission after excitation of the donor fluorophore at 400 nm, is used to quantitate reaction progress.
# The final 10 μL Kinase Reaction consists of 0.9-8.0 ng IKBKB (IKKβ), 2 μM Ser/Thr 05 Peptide and ATP in 50 mM HEPES pH 7.5, 0.01% BRIJ-35, 10 mM MgCl2, 1 mM EGTA. The assay is performed at an ATP concentration at, or close to the Km. After the 60 minute Kinase Reaction incubation at room temperature, 5 μL of a 1:128 dilution of Development Reagent is added. The assay plate is incubated for a further 60 minutes at room temperature and read on a fluorescence plate reader.
# Duplicate data points are generated from a ⅓ log dilution series of a stock solution of test compound in DMSO. Nine dilutions steps are made from a top concentration of 10 μM, and a ‘no compound’ blank is included. Data is collected and analysed using XLfit software from IDBS. The dose response curve is curve fitted to model number 205 (sigmoidal dose-response model). From the curve generated, the concentration giving 50% inhibition is determined and reported.
pIC50 (THP-1 cells),pIC50 (IKBKB (IKKβ)),SMILES
5.30 to 6.00,> 6.00,"NC(=O)Nc1sc(-c2ccc(OCC[C@H](N)C(=O)OC3CCCC3)cc2)cc1C(N)=O [Example 2, Cyclopentyl O-{4-[4-carbamoyl-5-(carbamoylamino)-2-thienyl]phenyl}-L-homoserinate]"
5.30 to 6.00,> 6.00,"NC(=O)Nc1sc(-c2ccc(OCCC[C@@H](N)C(=O)OC3CCCC3)cc2)cc1C(N)=O [Example 4, Cyclopentyl 5-{4-[4-carbamoyl-5-(carbamoylamino)-2-thienyl]phenoxy}-D-norvalinate]"
> 6.00,> 6.00,"NC(=O)Nc1sc(-c2ccc(CCC[C@@H](N)C(=O)OC3CCCC3)cc2)cc1C(N)=O [Example 12, Cyclopentyl 5-{4-[4-carbamoyl-5-(carbamoylamino)-2-thienyl]phenyl}-D-norvalinate]"
5.30 to 6.00,> 6.00,"NC(=O)Nc1sc(-c2ccc(COCC[C@H](N)C(=O)OC3CCCC3)cc2)cc1C(N)=O [Example 17, Cyclopentyl O-{4-[4-carbamoyl-5-(carbamoylamino)-2-thienyl]benzyl}-L-homoserinate]"
< 5.30,> 6.00,"NC(=O)Nc1sc(-c2ccc(OCC[C@H](NC3CCCCC3)C(=O)OC3CCCC3)cc2)cc1C(N)=O [Example 19, Cyclopentyl O-{4-[4-carbamoyl-5-(carbamoylamino)thiophen-2-yl]phenyl}-N-cyclohexyl-L-homoserinate]"
5.30 to 6.00,> 6.00,"NC(=O)Nc1sc(-c2ccc(/C=C/C[C@@H](NC3CCCCC3)C(=O)OC3CCCC3)cc2)cc1C(N)=O [Example 20, Cyclopentyl (2R,4E)-5-{4-[4-carbamoyl-5-(carbamoylamino)thiophen-2-yl]phenyl}-2-(cyclohexylamino)pent-4-enoate]"
–,> 6.00,"NC(=O)Nc1sc(-c2ccc(OCC[C@@H](N)C(=O)O)cc2)cc1C(N)=O [Example 25, O-{4-[4-Carbamoyl-5-(carbamoylamino)-2-thienyl]phenyl}-D-homoserine]"
–,> 6.00,"NC(=O)Nc1sc(-c2ccc(OCCC[C@H](N)C(=O)O)cc2)cc1C(N)=O [Example 27, 5-{4-[4-carbamoyl-5-(carbamoylamino)-2-thienyl]phenoxy}-L-norvaline]"
–,> 6.00,"NC(=O)Nc1sc(-c2ccc(OCCC[C@@H](N)C(=O)O)cc2)cc1C(N)=O [Example 28, 5-{4-[4-carbamoyl-5-(carbamoylamino)-2-thienyl]phenoxy}-D-norvaline]"
–,> 6.00,"Cc1cc(OCC[C@H](N)C(=O)O)ccc1-c1cc(C(N)=O)c(NC(N)=O)s1 [Example 29, O-{4-[4-carbamoyl-5-(carbamoylamino)-2-thienyl]-3-methylphenyl}-L-homoserine]"
–,> 6.00,"Cc1cc(-c2cc(C(N)=O)c(NC(N)=O)s2)ccc1OCC[C@H](N)C(=O)O [Example 30, O-{4-[4-carbamoyl-5-(carbamoylamino)-2-thienyl]-2-methylphenyl}-L-homoserine]"
–,> 6.00,"NC(=O)Nc1sc(-c2ccc(OCC[C@H](N)C(=O)O)cc2Cl)cc1C(N)=O [Example 31, O-{4-[4-carbamoyl-5-(carbamoylamino)-2-thienyl]-3-chlorophenyl}-L-homoserine]"
–,> 6.00,"NC(=O)Nc1sc(-c2ccc(OCC[C@H](N)C(=O)O)c(Cl)c2)cc1C(N)=O [Example 32, O-{4-[4-carbamoyl-5-(carbamoylamino)-2-thienyl]-2-chlorophenyl}-L-homoserine]"
–,> 6.00,"NC(=O)Nc1sc(-c2ccc(/C=C/C[C@H](N)C(=O)O)cc2)cc1C(N)=O [Example 33, (2S,4E)-2-amino-5-{4-[4-carbamoyl-5-(carbamoylamino)-2-thienyl]phenyl}pent-4-enoic acid]"
–,> 6.00,"NC(=O)Nc1sc(-c2ccc(/C=C/C[C@@H](N)C(=O)O)cc2)cc1C(N)=O [Example 34, (2R,4E)-2-amino-5-{4-[4-carbamoyl-5-(carbamoylamino)-2-thienyl]phenyl}pent-4-enoic acid]"
–,> 6.00,"NC(=O)Nc1sc(-c2ccc(CCC[C@H](N)C(=O)O)cc2)cc1C(N)=O [Example 35, 5-{4-[4-carbamoyl-5-(carbamoylamino)-2-thienyl]phenyl}-L-norvaline]"
–,> 6.00,"NC(=O)Nc1sc(-c2ccc(CCC[C@@H](N)C(=O)O)cc2)cc1C(N)=O [Example 36, 5-{4-[4-carbamoyl-5-(carbamoylamino)-2-thienyl]phenyl}-D-norvaline]"
–,> 6.00,"NC(=O)Nc1sc(-c2ccc(/C=C/C[C@H](N)C(=O)O)cc2Cl)cc1C(N)=O [Example 37, (2S,4E)-2-amino-5-{4-[4-carbamoyl-5-(carbamoylamino)-2-thienyl]-3-chlorophenyl}pent-4-enoic acid]"
–,> 6.00,"Cc1cc(-c2cc(C(N)=O)c(NC(N)=O)s2)ccc1/C=C/C[C@H](N)C(=O)O [Example 38, (2S,4E)-2-amino-5-{4-[4-carbamoyl-5-(carbamoylamino)-2-thienyl]-2-methylphenyl}pent-4-enoic acid]"
–,> 6.00,"NC(=O)Nc1sc(-c2ccc(C#CC[C@H](N)C(=O)O)cc2)cc1C(N)=O [Example 39, (2S)-2-amino-5-{4-[4-carbamoyl-5-(carbamoylamino)-2-thienyl]phenyl}pent-4-ynoic acid]"
–,> 6.00,"NC(=O)Nc1sc(-c2ccc(C[C@H](N)C(=O)O)cc2)cc1C(N)=O [Example 40, 4-[4-carbamoyl-5-(carbamoylamino)-2-thienyl]-L-phenylalanine]"
–,> 6.00,"NC(=O)Nc1sc(-c2ccc(COCC[C@H](N)C(=O)O)cc2)cc1C(N)=O [Example 41, O-{4-[4-carbamoyl-5-(carbamoylamino)-2-thienyl]benzyl}-L-homoserine]"
–,> 6.00,"NC(=O)Nc1sc(-c2ccc(/C=C\C[C@H](N)C(=O)O)cc2)cc1C(N)=O [Example 42, (2S,4Z)-2-amino-5-{4-[4-carbamoyl-5-(carbamoylamino)-2-thienyl]phenyl}pent-4-enoic acid]"
–,> 6.00,"NC(=O)Nc1sc(-c2ccc(OCC[C@H](NC3CCCCC3)C(=O)O)cc2)cc1C(N)=O [Example 43, O-{4-[4-carbamoyl-5-(carbamoylamino)thiophen-2-yl]phenyl}-N-cyclohexyl-L-homoserine]"
–,> 6.00,"NC(=O)Nc1sc(-c2ccc(/C=C/C[C@@H](NC3CCCCC3)C(=O)O)cc2)cc1C(N)=O [Example 44, (2R,4E)-5-{4-[4-carbamoyl-5-(carbamoylamino)thiophen-2-yl]phenyl}-2-(cyclohexylamino)pent-4-enoic acid]"
–,> 6.00,"NC(=O)Nc1sc(-c2ccc(N(CC[C@H](N)C(=O)O)Cc3ccccc3)cc2)cc1C(N)=O [Example 45, (2S)-2-amino-4-(benzyl{4-[4-carbamoyl-5-(carbamoylamino)thiophen-2-yl]phenyl}amino)butanoic acid]"
–,> 6.00,"NC(=O)Nc1cc(-c2ccc(OCC[C@H](N)C(=O)O)cc2)sc1C(N)=O [Example 46, O-{4-[5-carbamoyl-4-(carbamoylamino)-2-thienyl]phenyl}-L-homoserine]"
–,> 6.00,"NC(=O)Nc1cc(-c2ccc(C[C@H](N)C(=O)O)cc2)sc1C(N)=O [Example 47, 4-[5-carbamoyl-4-(carbamoylamino)2-thienyl]-L-phenylalanine]"
